Reference: patent US20250235510A1, “COMBINATION THERAPY USING GLUCOSE-DEPENDENT INSULINOTROPIC POLYPEPTIDE RECEPTOR ANTAGONIST COMPOUNDS AND GLP-1 RECEPTOR AGONIST PEPTIDES” (Pfizer Inc., priority 2024, published 2025)

Target: T1, human Glucose-dependent Insulinotropic Polypeptide Receptor (hGIPR) (Homo sapiens, UniProt P48546)
T1 sequence (P48546 22-466): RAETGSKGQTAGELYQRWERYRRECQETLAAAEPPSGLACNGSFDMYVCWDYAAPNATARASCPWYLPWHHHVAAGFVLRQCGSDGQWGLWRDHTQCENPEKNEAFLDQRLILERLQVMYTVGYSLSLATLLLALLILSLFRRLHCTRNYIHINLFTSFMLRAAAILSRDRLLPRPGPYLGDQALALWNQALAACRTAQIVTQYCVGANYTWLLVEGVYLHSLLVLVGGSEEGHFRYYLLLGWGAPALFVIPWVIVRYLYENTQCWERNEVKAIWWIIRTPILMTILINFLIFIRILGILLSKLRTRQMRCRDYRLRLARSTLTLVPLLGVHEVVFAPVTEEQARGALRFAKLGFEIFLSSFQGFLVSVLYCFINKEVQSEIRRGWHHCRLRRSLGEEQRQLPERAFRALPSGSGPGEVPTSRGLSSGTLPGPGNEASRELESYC
Test: Functional in vitro GIPR antagonist potency assay (intracellular cAMP, HTRF) in CHO-K1 cells stably expressing hGIPR
Format: cell-based
Settings: 2 h compound incubation, then hGIP at estimated EC80 for 30 min
Description: The functional in vitro antagonist potency for test compounds was determined by monitoring intracellular cyclic adenosine monophosphate (cAMP) levels in Chinese hamster ovary (CHO)-K1 cells stably expressing the human Glucose-dependent Insulinotropic Polypeptide Receptor (hGIPR). Following agonist activation, hGIPR associates with the G-protein complex causing the Gas subunit to exchange bound guanosine diphosphate (GDP) for guanosine triphosphate (GTP), followed by dissociation of the Gas-GTP complex. The activated Gas subunit can couple to downstream effectors to regulate the levels of second messengers or cAMP within the cell. Thereby, determination of intracellular cAMP levels allows for pharmacological characterization. Intracellular cAMP levels are quantitated using a homogenous assay utilizing the Homogeneous Time Resolved Fluorescence (HTRF) technology from Perkin Elmer. […] The two entities compete for binding to a monoclonal anti-cAMP antibody labeled with cryptate. […]
([…]: 5% CO2), with a micro-clime lid. […] ([…]: 5% CO2), after which intracellular cAMP levels were quantified and samples measured as described previously. […]
Data were analyzed using the ratio of fluorescence intensity at 620 and 665 nm for each well, extrapolated from the cAMP standard curve to express data as nanomolar (nM) cAMP for each well. […]

| IC50 [nM] | Structure (SMILES) |
| --- | --- |
| 160 | CC(C)c1ccc(NC(=O)N2CCC[C@H]2C(=O)Nc2ccc3cc(C(=O)O)ccc3c2)cc1 [Compound 41A, 6-[(1-{[4-(propan-2-yl)phenyl]carbamoyl}prolyl)amino] naphthalene-2-carboxylic acid] |
| 6.8 | CC(C)c1ccc(NC(=O)N2CCC[C@H]2C(=O)Nc2ccc(-c3ccc(C(=O)O)cc3)cc2)cc1 [Compound 44A, 4′-[(1-{[4-(propan-2-yl)phenyl]carbamoyl}prolyl)amino][1,1′-biphenyl]-4-carboxylic acid] |
